Data on one compound can be found in patent US20250206754A1, “PAN-CHEMOKINE ANTAGONISTS FOR USE IN TREATING CANCER AND IMMUNE DISORDERS” ("Micar Innovation" LTD., priority 2022, published 2025).

One series has as its target T1, CCR7 (Homo sapiens, UniProt P32248).
T1 construct: expressed in transfected cells
T1 sequence (P32248 25-378): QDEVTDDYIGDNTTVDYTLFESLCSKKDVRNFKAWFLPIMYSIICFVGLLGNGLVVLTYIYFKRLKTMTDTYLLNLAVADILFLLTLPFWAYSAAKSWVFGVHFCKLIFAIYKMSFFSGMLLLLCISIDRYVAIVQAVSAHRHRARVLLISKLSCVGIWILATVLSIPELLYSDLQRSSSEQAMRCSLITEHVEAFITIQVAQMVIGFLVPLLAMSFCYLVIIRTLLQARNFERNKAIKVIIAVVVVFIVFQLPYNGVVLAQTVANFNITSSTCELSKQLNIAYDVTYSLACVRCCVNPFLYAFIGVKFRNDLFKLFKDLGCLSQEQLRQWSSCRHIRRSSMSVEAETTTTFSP
In words: GTPγS assay, CCR7. Format: biochemical. On the procedure: (§1) The Kb values are also retrieved. […] Finally, to make it more clear the second messenger output for Hit1 and confirm the nature of β-arrestin bias GTPγS and ERK assays were also performed. […] Considering that the ERK is directly related to β-arrestin path and binds directly to the arrestin it was concluded that this compound is β-arrestin biased (Table 1 and FIGS. 3A and 3B). Finally, several other potential hits were identified but the activities were in a range of 25-35% at 100 μM concentration and they were discarded in this disclosure.
Current diversity data provide also several additional experimental evidences which are against colloid aggregation activity dependence: • Almost identical steep dose-response curves have been observed for the natural CCL19 and CCL21 agonists. Thus, it seems that this is not unique to Hit 1 case. • Hill coefficient of 1.5 in the ERK experiments and no steep slope (FIG. 3A). Moreover, the ERK dose-response curve looks like a typical single antagonist ligand. • At the same conditions as in the ERK assay the compound was in particular not active in the GTPγS assay up to 100 μM (FIG. 3B). […]

The target of another series is T2, CCR3 (Homo sapiens, UniProt P51677).
T2 sequence (P51677 1-355): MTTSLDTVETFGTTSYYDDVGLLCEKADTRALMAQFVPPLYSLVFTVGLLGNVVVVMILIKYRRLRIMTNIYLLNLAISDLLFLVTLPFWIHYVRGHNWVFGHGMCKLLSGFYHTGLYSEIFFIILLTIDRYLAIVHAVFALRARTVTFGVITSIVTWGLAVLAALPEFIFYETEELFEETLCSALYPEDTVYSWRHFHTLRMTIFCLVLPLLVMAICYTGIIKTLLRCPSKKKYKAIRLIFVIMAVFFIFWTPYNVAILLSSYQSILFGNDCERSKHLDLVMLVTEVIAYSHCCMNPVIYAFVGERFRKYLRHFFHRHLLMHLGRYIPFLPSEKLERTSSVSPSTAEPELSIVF
In words: β-arrestin selectivity assay, CCR3. In kind it is cell-based.

The next series deals with CCR2 (Homo sapiens, UniProt P41597). Description: β-arrestin selectivity assay, CCR2. Format: cell-based.
Chain of CCR2 (P41597 whole entry): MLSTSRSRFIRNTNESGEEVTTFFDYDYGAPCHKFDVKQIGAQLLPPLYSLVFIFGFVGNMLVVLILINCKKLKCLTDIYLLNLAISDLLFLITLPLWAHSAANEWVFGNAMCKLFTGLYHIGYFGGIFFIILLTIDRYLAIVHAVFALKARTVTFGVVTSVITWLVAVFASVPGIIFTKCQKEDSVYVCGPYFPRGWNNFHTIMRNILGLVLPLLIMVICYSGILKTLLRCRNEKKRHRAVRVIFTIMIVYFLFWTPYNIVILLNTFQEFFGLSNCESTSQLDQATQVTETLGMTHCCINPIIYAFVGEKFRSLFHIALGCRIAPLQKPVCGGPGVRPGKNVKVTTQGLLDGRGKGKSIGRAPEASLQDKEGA
In another series the test system is IL-8 release. The following applies: Homo sapiens, read-out: EC50, IL8 release.
Series [1] addresses T3, CCR5 (Homo sapiens, UniProt P51681). Description: β-arrestin selectivity assay, CCR5. Format: cell-based.
The next series concerns CCL2 release. The following applies: Homo sapiens, Keratinocyte, read-out: EC50, CCL2 release.
Series [2] deals with T3, CCR5. In words: cAMP assay, CCR5. In kind it is cell-based. The following applies: CCR5 (data not shown). The procedure: as §1
For orientation: cAMP levels reflect the balance of adenylyl cyclase and phosphodiesterase activity.

Another series deals with T4, CCR1 (Homo sapiens, UniProt P32246).
T4 sequence (P32246 1-355): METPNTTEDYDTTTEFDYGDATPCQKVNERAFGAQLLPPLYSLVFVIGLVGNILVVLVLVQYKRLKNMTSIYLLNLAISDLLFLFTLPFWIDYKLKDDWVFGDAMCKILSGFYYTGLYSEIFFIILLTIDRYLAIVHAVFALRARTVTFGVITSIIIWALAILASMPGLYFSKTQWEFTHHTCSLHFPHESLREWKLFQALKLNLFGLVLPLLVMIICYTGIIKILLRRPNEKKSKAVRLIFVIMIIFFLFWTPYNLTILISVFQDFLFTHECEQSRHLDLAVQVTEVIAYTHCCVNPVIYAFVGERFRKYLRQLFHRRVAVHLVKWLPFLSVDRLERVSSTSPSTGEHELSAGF
In words: β-arrestin selectivity assay, CCR1. Format: cell-based.

The subject of the next series is IL17 release. Description: Inhibition of IL17 release (inflammation model). To be noted: Homo sapiens, read-out: EC50, IL17 release.
In series [3] the test system is primary human keratinocytes. Description: Cell viability in the keratinocyte inflammation models. The following applies: in the cytokine release models. In kind it is cell-based.
In series [4] the target is T3, CCR5. Description: Ca^2+ mobilization assay, CCR5. In kind it is cell-based. The procedure: as §1

T3 sequence (P51681 whole entry): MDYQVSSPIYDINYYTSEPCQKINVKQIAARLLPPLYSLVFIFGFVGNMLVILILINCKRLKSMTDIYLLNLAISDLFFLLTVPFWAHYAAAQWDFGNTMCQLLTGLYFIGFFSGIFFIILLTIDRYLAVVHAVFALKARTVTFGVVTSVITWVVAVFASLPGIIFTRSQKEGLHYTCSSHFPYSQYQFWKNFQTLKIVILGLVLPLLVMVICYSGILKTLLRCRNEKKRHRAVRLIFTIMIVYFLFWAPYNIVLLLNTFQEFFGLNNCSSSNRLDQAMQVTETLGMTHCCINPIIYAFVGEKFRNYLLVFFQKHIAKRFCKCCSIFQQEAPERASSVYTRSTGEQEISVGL
Protocol for CCL2 release: (§2) For this purpose a model for the inhibition of CCL2 release from IL-4, IL-13, IL-22 and IFNγ-stimulated primary human keratinocytes (Eczematous inflammation) was used and also an assay for the inhibition of IL-8 release from IL-17A and TNFα (Psoriatic inflammation). […] Finally, migration assay by MB231cell line was performed.
Protocol for IL-8 release: as §2

Broadly, the Hill coefficient is the slope factor of the fitted curve. Broadly, the IC50 is the midpoint of a concentration-inhibition curve. In general, EC50 refers to the concentration needed to bring the measured effect to its halfway point. `NC(=O)c1ccccc1Oc1ncnc2sc(-c3ccccc3)cc12` [Hit 1, 2-({6-phenylthieno[2,3-d]pyrimidin-4-yl}oxy)benzamide] had an antagonist activity on CCR7 (GTPγS assay, highest concentration of 100 μM) of 16%. For the same compound, the “activity in GTPγS assay” value at CCR7 (up to 100 μM) is on record as “not active”. In addition, the Hill coefficient is listed as 2.6 at CCR3, 3.1 on CCR2, 1.9 on CCR5 [1] and 2.3 on CCR1. The IC50 on CCR3 turned out to be 4.4 µM; against CCR2, 2.6 µM; against CCR5 [1], 1.9 µM; at CCR5 [2] it was 50 µM; on CCR1, 13.6 µM; against CCR5 [4] (Ca^2+ mobilization assay), 55 µM. Further, the EC50 in the series on IL-8 release was found to be 0.733 µM; in the series with CCL2 release, 0.411 µM; in the series with IL17 release, 3.78 µM. The cell viability result in [3] is reported as “Some inhibition of the cell viability”. On CCR5 [4], the Kb was determined as 10.5 µM. Also, the Hill-Slope at CCR5 [4] (Ca^2+ assay) turned out to be 1.2.
